Laboratory results taken from patent publication EP0050253A1, “Antibiotic pharmaceutical composition” (priority 1980, dated 1982).

How the values were obtained:
Escherichia coli R^+TEM = experiment: Agar dilution checkerboard growth test (Caseinpepton-Fleischextrakt-Bouillon-Agar, ~3x10^4 CFU/ml, 18 h, 37 °C); assay type: cell-based
Description: (§1) Ein Caseinpepton-Fleischextrakt-Bouillon-Agar mit einem Gehalt der angegebenen Menge der nachstehend angegebenen Substanzen A und B wird mit dem Testbakterium geimpft (~3x10^4CFU/ml). Nach der Inkubation während 18 Stunden bei 37 °C wird der Wuchszustand der Testbakterien untersucht. Die Ergebnisse sind in den Tabellen zusammengestellt. In jeder Tabelle bedeutet (+), daß das Testbakterium wächst, und (-) bedeutet, daß das Testbakterium nicht wächst. Man erkennt aus diesen Tabellen, daß die Kombination von D-α-[3-(2-p-Aminosulfonylanilino-4-hydroxy-5-pyrimidinyl)-ureido]-p-hydroxy-benzylpenicillin-Natrium = A bzw.

Kl. pneumoniae 1082 E = experiment: as above; assay type: cell-based
Description: as §1

## CC1(C)S[C@@H]2[C@H](NC(=O)[C@H](NC(=O)Nc3cnc(Nc4ccc(S(N)(=O)=O)cc4)nc3O)c3ccc(O)cc3)C(=O)N2[C@H]1C(=O)O [Substanz A, D-α-[3-(2-p-Aminosulfonylanilino-4-hydroxy-5-pyrimidinyl)-ureido]-p-hydroxy-benzylpenicillin-Natrium]
Escherichia coli R^+TEM; C 0 µg/ml, A 0,5 µg/ml
  Wuchszustand der Testbakterien: +
Escherichia coli R^+TEM; C 0 µg/ml, A 1 µg/ml
  Wuchszustand der Testbakterien: +
Escherichia coli R^+TEM; C 0 µg/ml, A 2 µg/ml
  Wuchszustand der Testbakterien: +
Escherichia coli R^+TEM; C 0 µg/ml, A 4 µg/ml
  Wuchszustand der Testbakterien: +
Escherichia coli R^+TEM; C 0 µg/ml, A 8 µg/ml
  Wuchszustand der Testbakterien: +
Escherichia coli R^+TEM; C 0 µg/ml, A 16 µg/ml
  Wuchszustand der Testbakterien: +
Escherichia coli R^+TEM; C 0 µg/ml, A 32 µg/ml
  Wuchszustand der Testbakterien: +
Escherichia coli R^+TEM; C 0 µg/ml, A 64 µg/ml
  Wuchszustand der Testbakterien: +
Escherichia coli R^+TEM; C 0 µg/ml, A 128 µg/ml
  Wuchszustand der Testbakterien: +
Kl. pneumoniae 1082 E; C 0 µg/ml, A 0,5 µg/ml
  Wuchszustand der Testbakterien: +
Kl. pneumoniae 1082 E; C 0 µg/ml, A 0,25 µg/ml
  Wuchszustand der Testbakterien: +
Kl. pneumoniae 1082 E; C 0 µg/ml, A 1 µg/ml
  Wuchszustand der Testbakterien: +
Kl. pneumoniae 1082 E; C 0 µg/ml, A 2 µg/ml
  Wuchszustand der Testbakterien: +
Kl. pneumoniae 1082 E; C 0 µg/ml, A 4 µg/ml
  Wuchszustand der Testbakterien: +
Kl. pneumoniae 1082 E; C 0 µg/ml, A 8 µg/ml
  Wuchszustand der Testbakterien: +
Kl. pneumoniae 1082 E; C 0 µg/ml, A 16 µg/ml
  Wuchszustand der Testbakterien: +
Kl. pneumoniae 1082 E; C 0 µg/ml, A 32 µg/ml
  Wuchszustand der Testbakterien: +
Kl. pneumoniae 1082 E; C 0 µg/ml, A 64 µg/ml
  Wuchszustand der Testbakterien: +

## Cn1nnnc1SCC1=C(C(=O)O)N2C(=O)[C@@H](NC(=O)[C@H](NC(=O)Nc3cnc(Nc4ccc(S(N)(=O)=O)cc4)nc3O)c3ccc(O)cc3)[C@H]2SC1 [Substanz B]
Escherichia coli R^+TEM; C 0 µg/ml, B 0,5 µg/ml
  Wuchszustand der Testbakterien: +
Escherichia coli R^+TEM; C 0 µg/ml, B 0,06 µg/ml
  Wuchszustand der Testbakterien: +
Escherichia coli R^+TEM; C 0 µg/ml, B 0,25 µg/ml
  Wuchszustand der Testbakterien: +
Escherichia coli R^+TEM; C 0 µg/ml, B 1 µg/ml
  Wuchszustand der Testbakterien: +
Escherichia coli R^+TEM; C 0 µg/ml, B 2 µg/ml
  Wuchszustand der Testbakterien: +
Escherichia coli R^+TEM; C 0 µg/ml, B 4 µg/ml
  Wuchszustand der Testbakterien: +
Escherichia coli R^+TEM; C 0 µg/ml, B 8 µg/ml
  Wuchszustand der Testbakterien: -
Escherichia coli R^+TEM; C 0 µg/ml, B 0,125 µg/ml
  Wuchszustand der Testbakterien: +
Kl. pneumoniae 1082 E; C 0 µg/ml, B 0,5 µg/ml
  Wuchszustand der Testbakterien: +
Kl. pneumoniae 1082 E; C 0 µg/ml, B 0,25 µg/ml
  Wuchszustand der Testbakterien: +
Kl. pneumoniae 1082 E; C 0 µg/ml, B 1 µg/ml
  Wuchszustand der Testbakterien: +
Kl. pneumoniae 1082 E; C 0 µg/ml, B 2 µg/ml
  Wuchszustand der Testbakterien: +
Kl. pneumoniae 1082 E; C 0 µg/ml, B 4 µg/ml
  Wuchszustand der Testbakterien: +
Kl. pneumoniae 1082 E; C 0 µg/ml, B 8 µg/ml
  Wuchszustand der Testbakterien: +
Kl. pneumoniae 1082 E; C 0 µg/ml, B 16 µg/ml
  Wuchszustand der Testbakterien: +
Kl. pneumoniae 1082 E; C 0 µg/ml, B 32 µg/ml
  Wuchszustand der Testbakterien: +
Kl. pneumoniae 1082 E; C 0 µg/ml, B 64 µg/ml
  Wuchszustand der Testbakterien: +

## O=C(O)[C@H]1/C(=C/CO)O[C@@H]2CC(=O)N21 [Substanz C, Lithium-Z-(2R,5R)-3-(ß-hydroxyäthyliden)-7-oxo-4-oxa-1-aza-bicyclo[3,2,0]-heptan-2-carboxylat, reference compound]
Escherichia coli R^+TEM; C 0,5 µg/ml, B 0 µg/ml
  Wuchszustand der Testbakterien: +
Escherichia coli R^+TEM; C 0,25 µg/ml, B 0 µg/ml
  Wuchszustand der Testbakterien: +
Escherichia coli R^+TEM; C 1 µg/ml, A 0 µg/ml
  Wuchszustand der Testbakterien: +
Escherichia coli R^+TEM; C 1 µg/ml, B 0 µg/ml
  Wuchszustand der Testbakterien: +
Escherichia coli R^+TEM; C 2 µg/ml, A 0 µg/ml
  Wuchszustand der Testbakterien: +
Escherichia coli R^+TEM; C 2 µg/ml, B 0 µg/ml
  Wuchszustand der Testbakterien: +
Escherichia coli R^+TEM; C 4 µg/ml, A 0 µg/ml
  Wuchszustand der Testbakterien: +
Escherichia coli R^+TEM; C 4 µg/ml, B 0 µg/ml
  Wuchszustand der Testbakterien: +
Escherichia coli R^+TEM; C 8 µg/ml, A 0 µg/ml
  Wuchszustand der Testbakterien: +
Escherichia coli R^+TEM; C 8 µg/ml, B 0 µg/ml
  Wuchszustand der Testbakterien: +
Escherichia coli R^+TEM; C 16 µg/ml, A 0 µg/ml
  Wuchszustand der Testbakterien: +
Escherichia coli R^+TEM; C 16 µg/ml, B 0 µg/ml
  Wuchszustand der Testbakterien: +
Escherichia coli R^+TEM; C 32 µg/ml, A 0 µg/ml
  Wuchszustand der Testbakterien: -
Escherichia coli R^+TEM; C 32 µg/ml, B 0 µg/ml
  Wuchszustand der Testbakterien: -
Kl. pneumoniae 1082 E; C 1 µg/ml, A 0 µg/ml
  Wuchszustand der Testbakterien: +
Kl. pneumoniae 1082 E; C 1 µg/ml, B 0 µg/ml
  Wuchszustand der Testbakterien: +
Kl. pneumoniae 1082 E; C 2 µg/ml, A 0 µg/ml
  Wuchszustand der Testbakterien: +
Kl. pneumoniae 1082 E; C 2 µg/ml, B 0 µg/ml
  Wuchszustand der Testbakterien: +
Kl. pneumoniae 1082 E; C 4 µg/ml, A 0 µg/ml
  Wuchszustand der Testbakterien: +
Kl. pneumoniae 1082 E; C 4 µg/ml, B 0 µg/ml
  Wuchszustand der Testbakterien: +
Kl. pneumoniae 1082 E; C 8 µg/ml, A 0 µg/ml
  Wuchszustand der Testbakterien: +
Kl. pneumoniae 1082 E; C 8 µg/ml, B 0 µg/ml
  Wuchszustand der Testbakterien: +
Kl. pneumoniae 1082 E; C 16 µg/ml, A 0 µg/ml
  Wuchszustand der Testbakterien: +
Kl. pneumoniae 1082 E; C 16 µg/ml, B 0 µg/ml
  Wuchszustand der Testbakterien: +
Kl. pneumoniae 1082 E; C 32 µg/ml, A 0 µg/ml
  Wuchszustand der Testbakterien: +
Kl. pneumoniae 1082 E; C 32 µg/ml, B 0 µg/ml
  Wuchszustand der Testbakterien: +
Kl. pneumoniae 1082 E; C 64 µg/ml, A 0 µg/ml
  Wuchszustand der Testbakterien: -
Kl. pneumoniae 1082 E; C 64 µg/ml, B 0 µg/ml
  Wuchszustand der Testbakterien: -
